Consider 1 molecule from patent US9068017B2, “Compositions and methods for inhibiting terminal transferase activity” (IBIS BIOSCIENCES, INC., priority 2010, dated 2015).

In this assay the test system is polymerase having terminal transferase activity. The protocol:
PCR products with and without boric acid added to PCR components and reagents prior to thermal cycling steps were compared. Stock boric acid was dissolved in 50% primer dilution buffer and added to PCR reactions for a final concentration of 100 mM boric acid and 200 mM boric acid.

In the case of `OB(O)O` [boric acid], the “3′ non-template addition of amplicons resulting from polymerase dependent terminal transferase activity” value (addition of boric acid to amplification reactions, summary statement, no concentration given) is recorded as “reduced 3′ non-template addition”. Further, the “non-template addition on forward and reverse strands of PCR products” value (boric acid added before thermal cycling, final concentration 100 mM and 200 mM, mass spectrometry (FIG. 1), non-template addition identified in absence of boric acid) was “undetectable non-template addition on both the forward and reverse strands”.
